Ten compounds from patent publication EP4159720A1, “NONSYMMETRIC SUBSTITUTED 1,1'-BIPHENYL DERIVATIVES AND USES THEREOF” (Recepton Spolka z Ograniczona Odpowiedzialnoscia, priority 2021, dated 2023) can be followed below.

Test [1] deals with T1, hPD-1 (50 nM) and hPD-L1 (5 nM) protein complex (Homo sapiens, UniProt Q9NZQ7).
T1 construct: purchased Cisbio 64ICP01PEG
The test is described as follows: Homogenous Time Resolved Fluorescence (HTRF) assay, Cisbio kit 64ICP01PEG. Format: binding. To be noted: activity range from Hill curve fit; 1 h incubation at room temperature; TR-FRET; three independent measurements. The procedure:
The biological activity of the compounds described in the previous section was tested by the Homogenous Time Resolved Fluorescence (HTRF) method. Determination was carried out with the use of putty from the Cisbio company (catalog number 64ICP01PEG) in the 20 µL format using the protocol from the manufacturer. Compounds in the concentration range allowing determination of biological activity from the inflection curve were added to the hPD-1 (50 nM) and hPD-L1 (5 nM) protein complex with antibodies and allowed to incubate for one hour at room temperature before measuring Forster resonant energy transfer (TR-FRET) on a Tecan Spark 20M instrument. The results were normalized to a positive control (complex without inhibitor) and negative control (no hPD-1), averaged from three independent measurements and fitted with a Hill curve.
Ranges of activity of the tested compounds: "very good" (+++) below 20 nM, "moderate" (++) - 20-50 nM and "low" (+) - 50 nM - 1 µM.
For orientation: In TR-FRET formats the signal depends on donor and acceptor labels being close together.

For a further test, the target named is T2, PD-1/PD-L1 interaction (Homo sapiens, UniProt Q9NZQ7).
T2 construct: host or cells: PD-L1 aAPC/CHO-K1 cells; PD-1 Effector Jurkat T cells
T2 sequence (Q9NZQ7 19-290): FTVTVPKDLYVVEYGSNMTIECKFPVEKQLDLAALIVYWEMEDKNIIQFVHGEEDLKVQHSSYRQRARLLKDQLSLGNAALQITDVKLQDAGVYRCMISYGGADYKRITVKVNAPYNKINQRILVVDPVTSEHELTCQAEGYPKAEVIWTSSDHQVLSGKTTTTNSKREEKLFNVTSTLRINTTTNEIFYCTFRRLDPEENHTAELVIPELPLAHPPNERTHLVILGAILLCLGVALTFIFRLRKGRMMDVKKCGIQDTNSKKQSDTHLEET
The test is described as follows: PD-1/PD-L1 Blockade Bioassay (Promega J1252; NFAT cellular assay). Format: cell-based. The settings on record: PD-1 Effector Jurkat cells co-cultured with PD-L1 aAPC/CHO-K1 cells for 6 h; NFAT-RE luminescence; three replications. How it is done: The potency of blocking the PD-1/PD-L1 pathway was assessed using the PD-1/PD-L1 Blockade Bioassay (Promega, cat. J1252). This assay relies on two genetically engineered cell lines: PD-1 Effector cells (Jurkat T cells expressing human PD-1 and luciferase driven by NFAT response element) and PD-L1 aAPC/CHO-K1 cells (CHO-K1 cells expressing human PD-L1 and cell surface protein designed to activate cognate T-cell Receptors in an antigen-independent manner). When the two cell types are co-cultured, the PD-1/PD-L1 interaction inhibits TCR signaling and NFAT-RE-mediated luminescence. Addition of either an anti-PD-1 or anti-PD-L1 antibody that blocks the PD-1/PD-L1 interaction releases the inhibitory signal and leads to TCR activation and the NFAT-RE-mediated luminescence, which is then measured on a microplate reader. The assay was performed according to the manufacturer's manual. PD-L1 aAPC/CHO-K1 cells were plated in 96-well, white, flat bottom assay plates at […] cells in 100 µL of medium (Ham's F12, 10% FBS) and incubated overnight at 37°C, 5% CO2. The next day, the medium was removed from the assay plate and serially diluted compounds as listed in table 1 were added at 40 µL per well in the assay buffer (RPMI1640 + 1% FBS + 0,5% DMSO). Next, PD-1 Effector Jurkat cells were resuspended in the assay buffer (RPMI 1640 + 1% FBS) at a concentration of 1,25 × 10^6 cells/mL and added to the assay plate at 40 µL per well (total of […]). The cells were co-cultured for 6 h (37°C, 5% CO2) and then removed from the incubator and equilibrated for 5 min at room temperature. The Bio-GloTM Reagent (Promega, cat. G7941) was prepared according to the manufacturer's instructions and added to each well at 80 µL per well. The results were baseline-corrected to non-treated controls, averaged from three replications and fitted with a 4-parameters variable slope.

Counter-ions that a name gives are not always drawn.

T1 sequence (Q9NZQ7 19-238 limits assumed, one chain of several): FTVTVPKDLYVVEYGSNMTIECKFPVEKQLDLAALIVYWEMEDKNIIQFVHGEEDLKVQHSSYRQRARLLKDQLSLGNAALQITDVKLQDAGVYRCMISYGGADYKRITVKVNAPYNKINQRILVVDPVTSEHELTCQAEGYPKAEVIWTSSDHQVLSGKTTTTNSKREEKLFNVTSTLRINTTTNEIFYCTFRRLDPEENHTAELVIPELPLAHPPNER

For the compound `COc1cc(C(=O)Nc2cccc(-c3cccc(NC(=O)c4cc(OC)c(CN[C@@H](C)CO)cn4)c3C)c2C)ncc1CN[C@H]1CCC[C@@H]1O` [Compound R1_C428, 5-((((1S,2S)-2-hydroxycyclopentyl)amino)methyl)-N-(3'-(5-((((S)-1-hydroxypropan-2-yl)amino)methyl)-4-methoxypicolinamido)-2,2'-dimethyl-[1,1'-biphenyl]-3-yl)-4-methoxypicolinamide], in test [1], the IC50 is less than 20 nM. Moreover, it took 44.6 nM to reach a half-maximal effect on PD-1/PD-L1 interaction (EC50). On the same counts, the results for `COc1cc(C(=O)Nc2cccc(-c3cccc(NC(=O)c4ccc(CN(C)CCO)cn4)c3C)c2C)ncc1CN[C@@H]1CCC[C@H]1O` [Compound R1_C451, 5-((((1R,2R)-2-hydroxycyclopentyl)amino)methyl)-N-(3'-(5-(((2-hydroxyethyl)(methyl)amino)methyl)picolinamido)-2,2'-dimethyl-[1,1'-biphenyl]-3-yl)-4-methoxypicolinamide] are less than 20 nM and 68 nM. On the same counts, the results for `COc1cc(C(=O)Nc2cccc(-c3cccc(NC(=O)c4cc(OC)c(CN(C)CCO)cn4)c3C)c2C)ncc1CN[C@@H](C)CO` [Compound R1_C441, (S)-5-(((2-hydroxyethyl)(methyl)amino)methyl)-N-(3'-(5-(((1-hydroxypropan-2-yl)amino)methyl)-4-methoxypicolinamido)-2,2'-dimethyl-[1,1'-biphenyl]-3-yl)-4-methoxypicolinamide] are less than 20 nM and 176 nM. For the compound `COc1cc(C(=O)Nc2cccc(-c3cccc(NC(=O)c4ccc(CN(C)CCO)cn4)c3C)c2C)ncc1CN(C)CCO` [Compound R1_C450, 5-(((2-hydroxyethyl)(methyl)amino)methyl)-N-(3'-(5-(((2-hydroxyethyl)(methyl)amino)methyl)picolinamido)-2,2'-dimethyl-[1,1'-biphenyl]-3-yl)-4-methoxypicolinamide], the IC50 in test [1] was less than 20 nM. This compound also displayed an EC50 on PD-1/PD-L1 interaction of 206 nM.

The compound `COc1cc(C(=O)Nc2cccc(-c3cccc(NC(=O)c4cc(OC)c(CN[C@@H]5CCC[C@H]5O)cn4)c3C)c2C)ncc1CNC(CO)CO` [Compound R1_C445, 5-(((1,3-dihydroxypropan-2-yl)amino)methyl)-N-(3'-(5-((((1R,2R)-2-hydroxycyclopentyl)amino)methyl)-4-methoxypicolinamido)-2,2'-dimethyl-[1,1'-biphenyl]-3-yl)-4-methoxypicolinamide] came in with an IC50 in test [1] of less than 20 nM. For the same compound, at PD-1/PD-L1 interaction, the EC50 came out at 150 nM. The corresponding values for `COc1cc(C(=O)Nc2cccc(-c3cccc(NC(=O)c4cc(OC)c(CN[C@@H](C)CO)cn4)c3C)c2C)ncc1CNC(CO)CO` [Compound R1_C446, (S)-5-(((1,3-dihydroxypropan-2-yl)amino)methyl)-N-(3'-(5-(((1-hydroxypropan-2-yl)amino)methyl)-4-methoxypicolinamido)-2,2'-dimethyl-[1,1'-biphenyl]-3-yl)-4-methoxypicolinamide] are less than 20 nM and 205 nM. At PD-1/PD-L1 interaction, `COc1cc(C(=O)Nc2cccc(-c3cccc(NC(=O)c4ccc(CN(C)CCO)cn4)c3C)c2C)ncc1CN[C@@H]1CCC[C@H]1O` [Compound R1_C451_1, 5-((((1R,2R)-2-hydroxycyclopentyl)amino)methyl)-N-(3'-(5-(((2-hydroxyethyl)(methyl)amino)methyl)picolinamido)-2,2'-dimethyl-[1,1'-biphenyl]-3-yl)-4-methoxypicolinamide trihydrochloride] yielded an EC50 of 234 nM. In turn, `COc1cc(C(=O)Nc2cccc(-c3cccc(NC(=O)c4cc(OC)c(CNCCCO)cn4)c3C)c2C)ncc1CNCCO` [Compound R1_C454, 5-(((2-hydroxyethyl)amino)methyl)-N-(3'-(5-(((3-hydroxypropyl)amino)methyl)-4-methoxypicolinamido)-2,2'-dimethyl-[1,1'-biphenyl]-3-yl)-4-methoxypicolinamide] came in with an IC50 in test [1] of 50 to 1000 nM. This compound also returned an EC50 on PD-1/PD-L1 interaction of 480 nM. Consider `COc1cc(C(=O)Nc2cccc(-c3cccc(NC(=O)c4cc(OC)c(CN[C@@H](C)CO)cn4)c3C)c2C)ncc1CNCCCO` [Compound R1_C453, (S)-5-(((1-hydroxypropan-2-yl)amino)methyl)-N-(3'-(5-(((3-hydroxypropyl)amino)methyl)-4-methoxypicolinamido)-2,2'-dimethyl-[1,1'-biphenyl]-3-yl)-4-methoxypicolinamide], for which the IC50 in test [1] is less than 20 nM. The compound also had an EC50 at PD-1/PD-L1 interaction of 143 nM. The corresponding values for `COc1cc(C(=O)Nc2cccc(-c3cccc(NC(=O)c4ccc(CN(C)CCO)cn4)c3C)c2C)ncc1CN[C@@H](C)CO` [Compound R1_C458, (S)-N-(3'-(5-(((2-hydroxyethyl)(methyl)amino)methyl)picolinamido)-2,2'-dimethyl-[1,1'-biphenyl]-3-yl)-5-(((1-hydroxypropan-2-yl)amino)methyl)-4-methoxypicolinamide] are less than 20 nM and 159 nM.

The term IC50 denotes the concentration that inhibits the measured activity by half. The term EC50 denotes the concentration needed to bring the measured effect to its halfway point. Low values mean an effect from little substance, high ones a need for much substance.
